Measured values published in ChEMBL document CHEMBL2203234, “Optimisation of imidazole compounds as selective TAAR1 agonists: discovery of RO5073012” (Bioorg Med Chem Lett, 2012).

Columns and labels:
[1] = biological target: C-C chemokine receptor type 1 (Homo sapiens) (UniProt P32246); test: Inhibition of human CCR1 receptor at 10 uM by CEREP assay
[2] = biological target: C-C chemokine receptor type 2 (Homo sapiens) (UniProt P41597); test: Inhibition of human CCR2 receptor at 10 uM by CEREP assay
[3] = biological target: Histamine H2 receptor (Homo sapiens) (UniProt P25021); test: Inhibition of human H2 receptor at 10 uM by CEREP assay
[4] = biological target: Muscarinic acetylcholine receptor M1 (Homo sapiens) (UniProt P11229); test: Inhibition of human M1 receptor at 10 uM by CEREP assay
[5] = biological target: Muscarinic acetylcholine receptor M3 (Homo sapiens) (UniProt P20309); test: Inhibition of human M3 receptor at 10 uM by CEREP assay
[6] = biological target: Substance-K receptor (Homo sapiens) (UniProt P21452); test: Inhibition of human Nk2 receptor at 10 uM by CEREP assay
[7] = biological target: Neuromedin-K receptor (Homo sapiens) (UniProt P29371); test: Inhibition of human Nk3 receptor at 10 uM by CEREP assay
[8] = biological target: Neuronal acetylcholine receptor; alpha4/beta2 (Homo sapiens) (UniProt P17787+P43681); test: Inhibition of neuronal alpha4beta2 nAChR at 10 uM by CEREP assay; assay type: protein-complex assay
[9] = biological target: Kappa-type opioid receptor (Homo sapiens) (UniProt P41145); test: Inhibition of KOP receptor at 10 uM by CEREP assay
[10] = biological target: Pituitary adenylate cyclase-activating polypeptide type I receptor (Homo sapiens) (UniProt P41586); test: Inhibition of human PAC1 receptor at 10 uM by CEREP assay
[11] = biological target: 5-hydroxytryptamine receptor 1B (Homo sapiens) (UniProt P28222); test: Inhibition of 5-HT1B receptor at 10 uM by CEREP assay
[12] = biological target: 5-hydroxytryptamine receptor 1D (Homo sapiens) (UniProt P28221); test: Inhibition of 5-HT1D receptor at 10 uM by CEREP assay
[13] = biological target: 5-hydroxytryptamine receptor 2A (Homo sapiens) (UniProt P28223); test: Inhibition of human 5-HT2A receptor at 10 uM by CEREP assay
[14] = biological target: 5-hydroxytryptamine receptor 5A (Homo sapiens) (UniProt P47898); test: Inhibition of human 5-HT5A receptor at 10 uM by CEREP assay
[15] = biological target: Vasopressin V1a receptor (Homo sapiens) (UniProt P37288); test: Inhibition of human V1a receptor at 10 uM by CEREP assay
[16] = Inhibition of K+v channel at 10 uM by CEREP assay
[17] = Inhibition of Cl- channel at 10 uM by CEREP assay
[18] = biological target: Sodium-dependent dopamine transporter (Homo sapiens) (UniProt Q01959); test: Inhibition of human DA transporter at 10 uM by CEREP assay
[19] = biological target: Phosphodiesterase 3 (Homo sapiens) (UniProt Q14432+Q13370); test: Inhibition of human PDE3 at 10 uM by CEREP assay; assay type: protein assay
[20] = biological target: cGMP-specific 3',5'-cyclic phosphodiesterase (Canis lupus familiaris) (UniProt O77746); test: Inhibition of human PDE5 at 10 uM by CEREP assay
[21] = biological target: MAO-B (amine oxidase [flavin-containing] B) (Homo sapiens, UniProt P27338); test: Inhibition of human MAO-B at 10 uM by CEREP assay
[22] = Inhibition of Na+/K+ ATPase at 10 uM by CEREP assay
[23] = biological target: Galanin receptor type 2 (Homo sapiens) (UniProt O43603); test: Inhibition of human GAL2 receptor at 10 uM by CEREP assay
[24] = biological target: Endothelin-1 receptor (Homo sapiens) (UniProt P25101); test: Inhibition of human ETA receptor at 10 uM by CEREP assay
[25] = biological target: D(3) dopamine receptor (Homo sapiens) (UniProt P35462); test: Inhibition of human D3 receptor at 10 uM by CEREP assay
[26] = biological target: D(4) dopamine receptor (Homo sapiens) (UniProt P21917); test: Inhibition of human D4.4 receptor at 10 uM by CEREP assay
[27] = biological target: B2 bradykinin receptor (Homo sapiens) (UniProt P30411); test: Inhibition of human B2 receptor at 10 uM by CEREP assay
[28] = biological target: B1 bradykinin receptor (Homo sapiens) (UniProt P46663); test: Inhibition of human B1 receptor at 10 uM by CEREP assay
[29] = Inhibition of peripheral BZD receptor at 10 uM by CEREP assay
[30] = biological target: Beta-2 adrenergic receptor (Homo sapiens) (UniProt P07550); test: Inhibition of human beta 2 adrenergic receptor at 10 uM by CEREP assay
[31] = biological target: Adenosine receptor A2a (Homo sapiens) (UniProt P29274); test: Inhibition of human A2A receptor at 10 uM by CEREP assay
Chain of Adenosine receptor A2a (Homo sapiens) (P29274 whole entry): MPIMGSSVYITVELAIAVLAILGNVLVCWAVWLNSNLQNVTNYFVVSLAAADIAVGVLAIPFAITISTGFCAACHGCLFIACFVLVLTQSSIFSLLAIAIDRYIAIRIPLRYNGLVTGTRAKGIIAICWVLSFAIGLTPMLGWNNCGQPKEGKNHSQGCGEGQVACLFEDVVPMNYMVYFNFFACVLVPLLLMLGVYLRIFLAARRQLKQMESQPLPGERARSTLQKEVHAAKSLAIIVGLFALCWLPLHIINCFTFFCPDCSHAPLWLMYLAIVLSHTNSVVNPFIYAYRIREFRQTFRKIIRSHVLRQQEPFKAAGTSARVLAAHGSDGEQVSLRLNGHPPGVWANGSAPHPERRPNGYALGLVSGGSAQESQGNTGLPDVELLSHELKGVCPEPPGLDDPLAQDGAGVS

Chain of Sodium-dependent dopamine transporter (Homo sapiens) (Q01959 whole entry): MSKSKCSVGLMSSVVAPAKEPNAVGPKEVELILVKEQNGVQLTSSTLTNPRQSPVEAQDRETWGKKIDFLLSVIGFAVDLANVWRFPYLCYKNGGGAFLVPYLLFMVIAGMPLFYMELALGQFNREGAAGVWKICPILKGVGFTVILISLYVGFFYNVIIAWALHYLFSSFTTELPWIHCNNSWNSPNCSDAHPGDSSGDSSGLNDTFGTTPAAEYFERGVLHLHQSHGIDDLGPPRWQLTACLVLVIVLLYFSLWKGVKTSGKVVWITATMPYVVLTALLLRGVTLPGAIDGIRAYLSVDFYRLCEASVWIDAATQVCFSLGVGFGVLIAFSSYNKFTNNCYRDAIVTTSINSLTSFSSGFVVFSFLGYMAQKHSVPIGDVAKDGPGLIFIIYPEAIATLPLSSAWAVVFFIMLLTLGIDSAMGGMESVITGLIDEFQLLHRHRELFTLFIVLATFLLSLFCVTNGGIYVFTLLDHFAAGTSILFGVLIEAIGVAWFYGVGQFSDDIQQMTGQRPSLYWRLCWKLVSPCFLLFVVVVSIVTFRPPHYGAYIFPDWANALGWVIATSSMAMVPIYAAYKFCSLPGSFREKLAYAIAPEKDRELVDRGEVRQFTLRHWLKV
Chain of 5-hydroxytryptamine receptor 5A (Homo sapiens) (P47898 whole entry): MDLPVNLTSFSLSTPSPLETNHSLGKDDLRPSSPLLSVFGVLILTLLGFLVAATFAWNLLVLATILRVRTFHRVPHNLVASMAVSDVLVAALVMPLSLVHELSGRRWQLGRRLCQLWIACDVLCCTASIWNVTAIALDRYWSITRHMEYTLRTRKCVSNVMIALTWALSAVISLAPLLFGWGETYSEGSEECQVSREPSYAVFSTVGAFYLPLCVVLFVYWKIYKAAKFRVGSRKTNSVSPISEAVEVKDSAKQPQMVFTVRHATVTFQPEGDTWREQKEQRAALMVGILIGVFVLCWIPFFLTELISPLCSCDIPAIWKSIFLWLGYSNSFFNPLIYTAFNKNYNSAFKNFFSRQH
Chain of 5-hydroxytryptamine receptor 1D (Homo sapiens) (P28221 whole entry): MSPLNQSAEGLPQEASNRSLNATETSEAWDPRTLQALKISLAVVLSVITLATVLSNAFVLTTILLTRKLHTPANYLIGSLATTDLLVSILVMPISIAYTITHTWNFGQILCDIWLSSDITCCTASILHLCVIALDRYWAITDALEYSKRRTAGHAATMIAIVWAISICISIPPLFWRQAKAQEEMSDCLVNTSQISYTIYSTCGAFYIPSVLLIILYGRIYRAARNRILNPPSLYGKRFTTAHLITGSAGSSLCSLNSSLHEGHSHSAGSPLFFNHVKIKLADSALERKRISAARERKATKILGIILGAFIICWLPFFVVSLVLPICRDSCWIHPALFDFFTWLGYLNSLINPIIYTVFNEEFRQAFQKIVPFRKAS
Chain of C-C chemokine receptor type 1 (Homo sapiens) (P32246 whole entry): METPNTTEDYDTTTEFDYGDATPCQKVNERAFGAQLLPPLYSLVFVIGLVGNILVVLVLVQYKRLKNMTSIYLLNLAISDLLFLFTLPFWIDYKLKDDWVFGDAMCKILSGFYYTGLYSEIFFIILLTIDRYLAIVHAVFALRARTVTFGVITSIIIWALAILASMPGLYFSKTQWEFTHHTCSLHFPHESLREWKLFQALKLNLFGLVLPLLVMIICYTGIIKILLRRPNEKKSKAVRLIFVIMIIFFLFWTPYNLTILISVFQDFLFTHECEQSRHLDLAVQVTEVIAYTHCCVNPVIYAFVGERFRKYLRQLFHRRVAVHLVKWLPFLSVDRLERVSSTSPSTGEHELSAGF
Chain of 5-hydroxytryptamine receptor 1B (Homo sapiens) (P28222 whole entry): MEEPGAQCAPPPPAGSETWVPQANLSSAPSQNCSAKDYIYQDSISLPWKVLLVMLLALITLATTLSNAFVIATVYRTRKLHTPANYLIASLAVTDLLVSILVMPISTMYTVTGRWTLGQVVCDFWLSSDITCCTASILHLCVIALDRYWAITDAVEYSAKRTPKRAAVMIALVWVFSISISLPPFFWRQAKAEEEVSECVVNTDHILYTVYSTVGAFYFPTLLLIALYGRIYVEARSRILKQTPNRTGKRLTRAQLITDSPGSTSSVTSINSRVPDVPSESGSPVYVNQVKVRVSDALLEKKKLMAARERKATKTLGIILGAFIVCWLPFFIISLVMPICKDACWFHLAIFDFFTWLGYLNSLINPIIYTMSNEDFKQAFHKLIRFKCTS
Chain of Histamine H2 receptor (Homo sapiens) (P25021 whole entry): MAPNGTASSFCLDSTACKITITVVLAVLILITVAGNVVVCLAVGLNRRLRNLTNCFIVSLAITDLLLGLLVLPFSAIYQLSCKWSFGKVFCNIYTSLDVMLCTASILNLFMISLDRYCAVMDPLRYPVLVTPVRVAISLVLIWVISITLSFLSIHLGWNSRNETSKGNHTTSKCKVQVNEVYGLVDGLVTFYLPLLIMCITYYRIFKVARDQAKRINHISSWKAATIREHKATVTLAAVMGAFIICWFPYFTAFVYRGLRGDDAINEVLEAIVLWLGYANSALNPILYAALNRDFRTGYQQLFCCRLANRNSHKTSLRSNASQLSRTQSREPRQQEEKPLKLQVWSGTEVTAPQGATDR
Chain of D(3) dopamine receptor (Homo sapiens) (P35462 whole entry): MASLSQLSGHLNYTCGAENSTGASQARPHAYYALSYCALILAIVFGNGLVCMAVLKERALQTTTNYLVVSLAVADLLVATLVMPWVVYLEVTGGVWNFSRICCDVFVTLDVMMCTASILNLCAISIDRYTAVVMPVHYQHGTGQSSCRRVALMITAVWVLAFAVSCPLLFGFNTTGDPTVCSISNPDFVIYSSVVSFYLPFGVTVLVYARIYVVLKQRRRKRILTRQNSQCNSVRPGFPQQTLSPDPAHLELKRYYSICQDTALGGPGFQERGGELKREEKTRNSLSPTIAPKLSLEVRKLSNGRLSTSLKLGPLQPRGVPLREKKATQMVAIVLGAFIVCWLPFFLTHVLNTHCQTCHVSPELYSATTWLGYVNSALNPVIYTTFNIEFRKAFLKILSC
Chain of B1 bradykinin receptor (Homo sapiens) (P46663 whole entry): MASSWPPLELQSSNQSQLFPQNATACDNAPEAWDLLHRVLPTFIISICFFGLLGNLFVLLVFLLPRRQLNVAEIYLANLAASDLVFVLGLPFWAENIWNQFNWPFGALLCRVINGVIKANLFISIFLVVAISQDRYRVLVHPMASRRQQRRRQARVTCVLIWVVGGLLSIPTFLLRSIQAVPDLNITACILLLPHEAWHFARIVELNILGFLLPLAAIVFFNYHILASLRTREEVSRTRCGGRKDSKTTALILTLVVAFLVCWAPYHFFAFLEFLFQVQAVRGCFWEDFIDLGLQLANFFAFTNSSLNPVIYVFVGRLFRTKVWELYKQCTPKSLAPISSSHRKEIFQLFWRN
Chain of Beta-2 adrenergic receptor (Homo sapiens) (P07550 whole entry, looked up): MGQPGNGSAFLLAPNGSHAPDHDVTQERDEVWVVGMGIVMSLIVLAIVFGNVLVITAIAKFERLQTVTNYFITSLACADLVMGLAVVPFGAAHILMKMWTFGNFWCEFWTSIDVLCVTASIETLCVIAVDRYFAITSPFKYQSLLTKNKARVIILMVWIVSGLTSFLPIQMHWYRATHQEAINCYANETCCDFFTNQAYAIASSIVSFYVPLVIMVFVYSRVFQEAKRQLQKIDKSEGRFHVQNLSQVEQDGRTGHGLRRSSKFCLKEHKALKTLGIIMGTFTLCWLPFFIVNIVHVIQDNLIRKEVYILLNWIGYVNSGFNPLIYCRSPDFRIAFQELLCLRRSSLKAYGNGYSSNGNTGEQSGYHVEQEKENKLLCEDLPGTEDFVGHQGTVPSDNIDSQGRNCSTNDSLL
Chain of Kappa-type opioid receptor (Homo sapiens) (P41145 whole entry): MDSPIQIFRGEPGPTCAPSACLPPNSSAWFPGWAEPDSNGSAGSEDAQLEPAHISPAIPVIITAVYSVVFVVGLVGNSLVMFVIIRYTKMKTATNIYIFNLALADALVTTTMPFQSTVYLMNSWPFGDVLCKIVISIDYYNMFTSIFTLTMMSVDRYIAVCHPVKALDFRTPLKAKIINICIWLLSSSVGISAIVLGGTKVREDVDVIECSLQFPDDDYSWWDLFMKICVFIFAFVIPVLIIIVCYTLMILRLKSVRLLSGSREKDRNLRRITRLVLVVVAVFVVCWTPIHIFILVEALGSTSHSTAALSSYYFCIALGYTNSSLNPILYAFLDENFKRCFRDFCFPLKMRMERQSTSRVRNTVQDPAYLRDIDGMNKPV
Chain of C-C chemokine receptor type 2 (Homo sapiens) (P41597 whole entry, looked up): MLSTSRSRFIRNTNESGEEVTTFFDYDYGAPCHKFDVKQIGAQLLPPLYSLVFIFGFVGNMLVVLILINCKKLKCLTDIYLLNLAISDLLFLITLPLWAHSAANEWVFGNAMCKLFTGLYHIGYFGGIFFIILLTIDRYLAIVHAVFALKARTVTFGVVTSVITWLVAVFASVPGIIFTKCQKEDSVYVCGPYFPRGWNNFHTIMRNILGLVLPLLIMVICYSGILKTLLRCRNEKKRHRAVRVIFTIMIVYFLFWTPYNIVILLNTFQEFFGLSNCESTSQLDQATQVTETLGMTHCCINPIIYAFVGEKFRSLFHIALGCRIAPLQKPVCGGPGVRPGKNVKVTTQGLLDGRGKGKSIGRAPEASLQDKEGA

CCc1cccc(CC)c1Cc1ncc[nH]1
inhibition [1]: -1% | inhibition [2]: 12% | inhibition [3]: 4% | inhibition [4]: 24% | inhibition [5]: 25% | inhibition [6]: 3% | inhibition [7]: 10% | inhibition [8]: 7% | inhibition [9]: 19% | inhibition [10]: 21% | inhibition [11]: 18% | inhibition [12]: 19% | inhibition [13]: -5% | inhibition [14]: 20% | inhibition [15]: 1% | inhibition [16]: -1% | inhibition [17]: 3% | inhibition [18]: 0% | inhibition [19]: -5% | inhibition [20]: 5% | inhibition at 10 µM [21]: 0% | inhibition [22]: -1% | inhibition [23]: 4% | inhibition [24]: -3% | inhibition [25]: 10% | inhibition [26]: -3% | inhibition [27]: 3% | inhibition [28]: -6% | inhibition [29]: 1% | inhibition [30]: 6% | inhibition [31]: -6%
